# Tested on: ICAM-1
# Test: Western blot of TNF-α-induced ICAM-1 expression in SV40-HCEC cells
# Format: cell-based, human
# Conditions: 1-μM secretin
# Protocol: Experiments were conducted to set up an in vitro model for dry eye syndrome, using cell cultures of immortalized human cells from the cornea or conjunctiva using the SV40-HCEC corneal cell line of SV40 virus-immortalized corneal cells (12). SV40-HCEC cells were shown using immunofluorescence of anti-oxytocin receptor antibodies to contain oxytocin receptors in the plasma membrane (FIG. 4A, oxytocin receptor fluorescence is in red [top panel]; blue represents nuclear staining with DAPI stain [bottom panel]), consistent with the results showing its presence in rodent conjunctiva and cornea. Moreover, the presence of secretin receptors in SV40HCEC cells was shown using Western blot (FIG. 4B, the presence of secretin receptor migrating at the expected size [arrow]). M: Marker, S: Sample/secretin receptor. The lower band in the sample lane represents degradation product.
# A Western blot-based assay was developed to assess for the role of oxytocin and secretin in dry eye syndrome in vitro. The expression of the […] ICAM-1 in SV40-HCEC cells was induced by adding the pro-inflammatory cytokine TNF-α [13]. In vivo, ICAM-1 acts to recruit neutrophils to sites of inflammation, and thus acts as a surrogate for inflammation in vitro.
substance,measurement,value
"secretin: neuropeptide; endocrine hormone of the glucagon family, commercially available as SecreFlo",Reduction of rate of accumulation of ICAM-1,about two-fold
